Structures are written as SMILES.

Factor D, sequence (P00746 26-253): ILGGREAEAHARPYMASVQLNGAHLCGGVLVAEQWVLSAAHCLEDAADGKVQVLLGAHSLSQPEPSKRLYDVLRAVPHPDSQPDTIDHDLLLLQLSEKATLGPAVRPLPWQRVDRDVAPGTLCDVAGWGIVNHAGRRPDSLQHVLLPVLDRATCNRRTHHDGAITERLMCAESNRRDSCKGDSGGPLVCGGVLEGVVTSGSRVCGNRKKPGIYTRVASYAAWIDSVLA

This assay has as its target Factor D (Homo sapiens (Human), UniProt P00746). The experiment in a line: Factor D esterolytic assay (Z-Lys-SBzl substrate, DTNB, 405 nm). It counts as biochemical. Particulars: Z-Lys-SBzl 1.29 mM, pH 7.5, 10% DMSO, tested a minimum of three times, read-out: Measured Ki (IC50) Value for Compounds: IC50. As to the method:
The IC50 value of a compound (i.e., the concentration of the compound that inhibits 50% of the enzymatic activity) was calculated according to the procedure reported in U.S. Pat. No. 6,653,340 B1, e.g., column 74 (incorporated by reference).
Specifically, the compounds were dissolved in a stock solution of DMSO at 10.0 or 100 mM. A portion of this stock solution was added to assay buffer in a final volume of 50 μL. Controls included buffer alone and enzyme solutions to which DMSO was added. Substrate was added to the reaction wells immediately or after incubation at room temperature. The reaction rates were measured spectrophotometrically by the generation of product at 405 nm for 600 sec. Background absorbance at 690 nm was measured and subtracted from the absorbance at 405 nm for each well.
The reaction rate for enzyme alone was compared to the rate of enzyme in the presence of inhibitor and the percent inhibition was calculated as shown below: Percent Inhibition=[Rate without inhibitor−Rate with inhibitor)/(Rate without inhibitor)]×100 Factor D Esterolytic Assay:
An established esterolytic assay for the measurement of Factor D activity and inhibition of Factor D activity was used (Kam, C. M.; McRae, B. J.; Harper, J. W.; Niemann, M. A.; Volanakis, J. E.; Powers, J. C. Human complement proteins D, C2, and B Active site mapping with peptide thioester substrates. J Biol. Chem. 1987, 262, 3444-3451). For this assay Z-Lys-SBzl, 1.29 mM (Kim, S.; Narayana, S. V. L; Volanakis, J. E. Mutational analysis of the substrate binding site of human complement Factor D. Biochemistry. 1994, 33, 14393-14399.) was used as the substrate for Factor D ([…]). Hydrolysis of this compound by Factor D liberated a free sulfhydryl group which is then reacted with 5,5′-dithiobis(2nitrobenzoic acid) producing an intense yellow color (Habeeb, A. F. S. A. Reaction of protein sulfhydryl groups with Ellman's Reagent. Methods in Enzymol. 1976, 25, 457-464). The assays were performed in 96 well microtiter plates and rates of hydrolysis were monitored at 405 nm on a Biotek Synergy H1 plate reader. Hydrolysis rates were reported as change in mOD/min. The assay was conducted in 100 mM HEPES, 500 mM NaCl, pH 7.5 containing 10% DMSO in a final volume of 50 μL per well.
An IC50, a compound concentration which inhibits 50% of the enzymatic activity, was calculated. Compounds in the examples were tested a minimum of three times.
`NCc1cccc(-c2nc(C(=O)Nc3ccccc3CC(=O)O)cc3ccncc23)c1` [Compound 35f, 2-(2-(1-(3-(aminomethyl)phenyl)-2,7-naphthyridine-3-carboxamido)phenyl)acetic acid]: the half-inhibitory concentration (IC50) (commonly the point on the concentration scale where inhibition reaches its midpoint) is 1000 to 10000 nM. As to `NCc1cccc(-c2nc(C(=O)Nc3ccccc3CC(=O)O)nc3ccoc23)c1` [Compound 36h, 2-(2-(4-(3-(aminomethyl)phenyl)furo[3,2-d]pyrimidine-2-carboxamido)phenyl)acetic acid], the IC50 was below 1000 nM.

On to `NCc1cccc(-c2cc(C(=O)Nc3ccccc3CC(=O)O)cc3[nH]ccc23)c1F` [Compound 37c, 2-(2-(4-(3-(aminomethyl)-2-fluorophenyl)-1H-indole-6-carboxamido)phenyl)acetic acid], for which the IC50 was below 1000 nM. Turning to `NCc1coc2c(-c3cc(COc4ccccc4CC(=O)O)cc4ccoc34)cccc12` [Compound 38f, 2-(2-((3′-(aminomethyl)-[7,7′-bibenzofuran]-5-yl)methoxy)phenyl)acetic acid], the IC50 is below 1000 nM. Take `Cc1ccc(CC(=O)O)c(NC(=O)c2nc(-c3cccc(CN)c3)nn3cccc23)c1` [Compound 39d, 2-(2-(2-(3-(aminomethyl)phenyl)pyrrolo[2,1-f][1,2,4]triazine-4-carboxamido)-4-methylphenyl)acetic acid]: the IC50 is below 1000 nM. As for `Cc1ccc(S(=O)(=O)n2ccc3c(-c4cccc(CN)c4)cc(COc4ccccc4CC(=O)O)cc32)cc1` [Compound 40e, 2-(2-((4-(3-(aminomethyl)phenyl)-1-tosyl-1H-indol-6-yl)methoxy)phenyl)acetic acid], the IC50 is below 1000 nM. As to `NCc1cccc(-c2nc(C(=O)Nc3sccc3CC(=O)O)cc3ccoc23)c1` [Compound 41d, 2-(2-(7-(3-(aminomethyl)phenyl)furo[2,3-c]pyridine-5-carboxamido)thiophen-3-yl)acetic acid], the IC50 was below 1000 nM. For the compound `COc1ccc(CC(=O)O)c(NC(=O)c2nc(-c3cccc(CN)c3)nn3cccc23)c1` [Compound 42d, 2-(2-(2-(3-(aminomethyl)phenyl)pyrrolo[2,1-f][1,2,4]triazine-4-carboxamido)-4-methoxyphenyl)acetic acid], the half-maximal inhibitory concentration (IC50) is below 1000 nM. Next, `NCc1cccc(-c2cc(COc3ccccc3CC(=O)O)cc3c2OCC3)c1` [Compound 43d, 2-(2-((7-(3-(aminomethyl)phenyl)-2,3-dihydrobenzofuran-5-yl)methoxy)phenyl)acetic acid]: below 1000 nM; `NCc1cccc(-c2cc(C(=O)Nc3ccccc3CC(=O)O)cc3c2ccn3CC2CC2)c1` [Compound 44c, 2-(2-(4-(3-(aminomethyl)phenyl)-1-(cyclopropylmethyl)-1H-indole-6-carboxamido)phenyl)acetic acid]: below 1000 nM. For `Cn1ccc2c(-c3cccc(CN)c3)cc(C(=O)Nc3ccccc3CC(=O)O)cc21` [Compound 45e, 2-(2-(4-(3-(aminomethyl)phenyl)-1-methyl-1H-indole-6-carboxamido)phenyl)acetic acid], the IC50 is below 1000 nM. For the compound `NCc1cccc(-c2nc(C(=O)Nc3ccccc3CC(=O)O)c3ccc(CN4CCCC4)n3n2)c1` [Compound 46g, 2-(2-(2-(3-(aminomethyl)phenyl)-7-(pyrrolidin-1-ylmethyl)pyrrolo[2,1-f][1,2,4]triazine-4-carboxamido)phenyl)acetic acid], the IC50 is 1000 to 10000 nM. For `NCc1ccc(F)c(-c2nc(C(=O)Nc3ccccc3CC(=O)O)c3cccn3n2)c1` [Compound 47f, 2-(2-(2-(5-(aminomethyl)-2-fluorophenyl)pyrrolo[2,1-f][1,2,4]triazine-4-carboxamido)phenyl)acetic acid] the value was 1000 to 10000 nM; for `NCc1cccc(-c2nc(C(=O)Nc3ccccc3CC(=O)O)nc3c2COC3)c1` [Compound 48h, 2-(2-(4-(3-(aminomethyl)phenyl)-5,7-dihydrofuro[3,4-d]pyrimidine-2-carboxamido)phenyl)acetic acid], 1000 to 10000 nM; for `Cc1ccc(S(=O)(=O)n2ccc3c(-c4cccc(CN)c4)cc(COc4ccccc4CC(=O)O)nc32)cc1` [Compound 49f, 2-(2-((4-(3-(aminomethyl)phenyl)-1-tosyl-1H-pyrrolo[2,3-b]pyridin-6-yl)methoxy)phenyl)acetic acid], below 1000 nM. As to `Cn1ccc2c(-c3cccc(CN)c3)cc(COc3ccccc3CC(=O)O)cc21` [Compound 50e, 2-(2-((4-(3-(aminomethyl)phenyl)-1-methyl-1H-indol-6-yl)methoxy)phenyl)acetic acid], the IC50 was below 1000 nM.

Regarding `Cc1ccc(CC(=O)O)c(NC(=O)c2nc(-c3cccc(CN)c3F)nn3cccc23)c1` [Compound 51c, 2-(2-(2-(3-(aminomethyl)-2-fluorophenyl)pyrrolo[2,1-f][1,2,4]triazine-4-carboxamido)-4-methylphenyl)acetic acid], the IC50 is below 1000 nM. Regarding `NCc1cccc(-c2cc(COc3ccccc3CC(=O)O)nc3[nH]ccc23)c1` [Compound 52a, 2-(2-((4-(3-(aminomethyl)phenyl)-1H-pyrrolo[2,3-b]pyridin-6-yl)methoxy)phenyl)acetic acid], the IC50 is below 1000 nM.

In the case of `Cc1cccc(CC(=O)O)c1NC(=O)c1nc(-c2cccc(CN)c2)nn2cccc12` [Compound 53d, 2-(2-(2-(3-(aminomethyl)phenyl)pyrrolo[2,1-f][1,2,4]triazine-4-carboxamido)-3-methylphenyl)acetic acid], the IC50 was below 1000 nM. For the compound `Cc1cc(NC(=O)c2nc(-c3cccc(CN)c3F)nn3cccc23)n(CC(=O)O)n1` [Compound 54d, 2-(5-(2-(3-(aminomethyl)-2-fluorophenyl)pyrrolo[2,1-f][1,2,4]triazine-4-carboxamido)-3-methyl-1H-pyrazol-1-yl)acetic acid], the IC50 is above 10000 nM. For `NCc1cccc(-c2cc(COc3ccccc3CC(=O)O)cc3cc(C4CC4)oc23)c1` [Compound 55g, 2-(2-((7-(3-(aminomethyl)phenyl)-2-cyclopropylbenzofuran-5-yl)methoxy)phenyl)acetic acid], the IC50 is below 1000 nM. On to `NCc1cccc(-c2cc(COc3ccccc3CC(=O)O)cc3ccoc23)c1F` [Compound 56c, 2-(2-((7-(3-(aminomethyl)-2-fluorophenyl)benzofuran-5-yl)methoxy)phenyl)acetic acid], for which the concentration for half-maximal inhibition (IC50) was below 1000 nM. For the compound `Cc1ccc(S(=O)(=O)n2ccc3c(-c4cccc(CN)c4F)cc(COc4ccccc4CC(=O)O)cc32)cc1` [Compound 57c, 2-(2-((4-(3-(aminomethyl)-2-fluorophenyl)-1-tosyl-1H-indol-6-yl)methoxy)phenyl)acetic acid], the concentration for half-maximal inhibition (IC50) was below 1000 nM. Next, `NCc1cccc(-c2cc(COc3ccccc3CC(=O)O)cc3[nH]ccc23)c1F` [Compound 58b, 2-(2-((4-(3-(aminomethyl)-2-fluorophenyl)-1H-indol-6-yl)methoxy)phenyl)acetic acid]: below 1000 nM; `N[C@H](CO)c1cccc(-c2cc(COc3ccccc3CC(=O)O)cc3ccoc23)c1` [Compound 59d, (S)-2-(2-((7-(3-(1-amino-2-hydroxyethyl)phenyl)benzofuran-5-yl)methoxy)phenyl)acetic acid]: below 1000 nM. On to `NCc1cc(-c2cc(COc3ccccc3CC(=O)O)cc3ccoc23)ccc1F` [Compound 60c, 2-(2-((7-(3-(aminomethyl)-4-fluorophenyl)benzofuran-5-yl)methoxy)phenyl)acetic acid], for which the IC50 was below 1000 nM. For the compound `CN(C)c1nc2cc(C(=O)Nc3ccccc3CC(=O)O)cc(-c3cccc(CN)c3)c2o1` [Compound 61f, 2-(2-(7-(3-(aminomethyl)phenyl)-2-(dimethylamino)benzo[d]oxazole-5-carboxamido)phenyl)acetic acid], the IC50 fell in the range of 1000 to 10000 nM. In the case of `NCc1cccc(-c2cc(C(=O)Nc3ccccc3CC(=O)O)cc3cc(C4CC4)oc23)c1` [Compound 62c, 2-(2-(7-(3-(aminomethyl)phenyl)-2-cyclopropylbenzofuran-5-carboxamido)phenyl)acetic acid], the IC50 was below 1000 nM. For the compound `Cc1ccc(CC(=O)O)c(NC(=O)c2nc(-c3cc(F)cc(CN)c3)nn3cccc23)c1` [Compound 63c, 2-(2-(2-(3-(aminomethyl)-5-fluorophenyl)pyrrolo[2,1-f][1,2,4]triazine-4-carboxamido)-4-methylphenyl)acetic acid], the IC50 was below 1000 nM. Take `NCc1cccc(-c2nc(C(=O)Nc3ccccc3CC(=O)O)c3ccccc3n2)c1` [Compound 64f, 2-(2-(2-(3-(aminomethyl)phenyl)quinazoline-4-carboxamido)phenyl)acetic acid]: the IC50 was below 1000 nM.

For the origin of these results see patent US11370774B2, “Substituted benzofuran, benzopyrrole, benzothiophene, and structurally related complement inhibitors” (BioCryst Pharmaceuticals, Inc., priority 2018, dated 2022).
